Tested on: 379773-124-R-J2-PDC complex spheroids, viability % test/control
Assay: Anticancer human tumor 379773-124-R-J2-PDC patient-derived endometrial carcinoma cell line growth inhibition [CLK]
Settings: for IC50: curve of first compound; for viability, T/C: stronger effect = lower value
Description: A high-throughput screen of multi-cell type tumor spheroids was designed to identify active combinations of […] and targeted small molecules. Complex spheroids include a stromal component modeled by human endothelial cells (HUVEC) and fibroblasts modeled by human mesenchymal stem cells (MSCs). The concentration ranges selected for each drug and investigational agent were based upon clinically achievable concentrations if the clinical Cmax of the agent was known.
Compounds. The drugs and investigational agents: cirtuvivint (SM08502; NSC835563), CC-671 (NSC850746), vemurafenib (NSC761431), tapotoclax (NSC804041), sotorasib (NSC818433), adagrasib (NSC831453), MRTX-1133 (NSC836407), BAY2416964 (NSC825713), copanlisib (NSC816437), inavolisib (NSC800729), abemaciclib (NSC768073), osimertinib (NSC779217), entinostat (NSC756642), eltanexor (KPT-8602, NSC794443), venetoclax (NSC766270), ceralasertib (NSC777638), bortezomib (NSC756655), olaparib (NSC753686), talazoparib (NSC767125), alisertib (NSC759677), peposertib (NSC802822), gemcitabine (NSC613327), 5-fluorouracil (NSC19893), SN-38 (NSC673596), oxaliplatin (NSC266046), paclitaxel (NSC125973), and doxorubicin (NSC123127), were obtained from the National Cancer Institute (NCI) Developmental Therapeutics Program Chemical Repository. The FDA-approved anticancer drug set is available from the Developmental Therapeutics Program at https://dtp.cancer.gov/organization/dscb/obtaining/available plates.htm. […] The stock solutions were prepared in dimethyl sulfoxide (DMSO, Sigma-Aldrich, St. Louis, MO, cat. D2650), except for the platinum complexes which were prepared in saline (Quality Biological, Gaithersburg, MD, cat. 114-055-101), at 800-fold the tested concentration and stored at -70 degrees C prior to their use. All drugs and investigational agents were tested over a range starting from a high concentration at or near the clinical Cmax and decreasing in half-log increments. If the clinical Cmax for an agent had not been determined, the highest concentration tested was 10 microM.
Cell Culture. All cells were maintained in an incubator at 37 degrees C and 5% CO2 with 95% humidity. The PDC lines were cultured according to standard operating procedures established by the NCI PDMR. Briefly, all PDCs were thawed and cultured in Matrigel-coated flasks prepared with a working solution of 1X Ham's F-12 nutrient mix, without supplementation (Invitrogen, Waltham, MA, cat. 11765054), 100 U/mL penicillin-streptomycin (Invitrogen, cat. 15140122), and 2.5% Matrigel (Corning Inc., Corning, NY, cat. 354248) for the first three passages. The 947758-054-R-J2-PDC line was cultured in 6B/Colon 1A media, which includes advanced DMEM/F-12 (Thermo Fisher Scientific, cat. 12634028), 10 mM HEPES (Thermo Fisher Scientific, cat. 15630080), 1X GlutaMAX supplement (Thermo Fisher Scientific, cat. 35050061), 0.1 mg/mL primocin (InvivoGen, cat. ant-pm-2), 10% defined fetal bovine serum, heat inactivated (HyClone Laboratories Inc., cat. SH30070.03HI), 1.25 mM N-Acetyl-L-cysteine (Sigma-Aldrich, cat. A9165), 10 mM nicotinamide (Sigma-Aldrich, cat. N0636), 1X B-27 supplement (Thermo Fisher Scientific, cat. 17504044), 1X N-2 supplement (Thermo Fisher Scientific, cat. 17502048), and 10 microM Y-27632 dihydrochloride (Tocris Bioscience, cat. 1254). The 876862-298-R-J1-PDC was cultured in 6E media, which includes all 6B/Colon 1A media components plus 50% L-WRN conditioned media (ATCC, cat. CRL-3276), 50 ng/mL recombinant human EGF recombinant protein (hEGF; Thermo Fisher Scientific, cat. PHG0311), 10 ng/mL recombinant human fibroblast growth factor 10 (hGFG-10; PeproTech, cat. 100-26), 1 ng/mL recombinant human fibroblast growth factor 2 (hFGF-2; PeproTech, cat. 100-18B), and 1 µM prostaglandin E2 (PGE2; Tocris, cat. 2296). The 227483-062-R1-J1-PDC line was cultured in Panc media, containing all 6E components except hFGF-2, with the addition of 500 nM SB-431542 (Selleckchem, cat. S1067) and 10 nM gastrin (Tocris, cat. 3006). […]

[1] = second compound 0.0316 µM, first compound 0.0316 µM
[2] = second compound 0.0316 µM, first compound 0.1 µM
[3] = second compound 0.0316 µM, first compound 0.316 µM
[4] = second compound 0.0316 µM, first compound 1 µM
[5] = second compound 0.0316 µM, first compound 3.16 µM
[6] = second compound 0.0316 µM, first compound 10 µM
[7] = second compound 0.1 µM, first compound 0.0316 µM
[8] = second compound 0.1 µM, first compound 0.1 µM
[9] = second compound 0.1 µM, first compound 0.316 µM
[10] = second compound 0.1 µM, first compound 1 µM
[11] = second compound 0.1 µM, first compound 3.16 µM
[12] = second compound 0.1 µM, first compound 10 µM
[13] = second compound 0.316 µM, first compound 0.0316 µM
[14] = second compound 0.316 µM, first compound 0.1 µM
[15] = second compound 0.316 µM, first compound 0.316 µM
[16] = second compound 0.316 µM, first compound 1 µM
[17] = second compound 0.316 µM, first compound 3.16 µM
[18] = second compound 0.316 µM, first compound 10 µM
[19] = second compound 1 µM, first compound 0.0316 µM
[20] = second compound 1 µM, first compound 0.1 µM
[21] = second compound 1 µM, first compound 0.316 µM
[22] = second compound 1 µM, first compound 1 µM
[23] = second compound 1 µM, first compound 3.16 µM
[24] = second compound 1 µM, first compound 10 µM
[25] = second compound 3.16 µM, first compound 0.0316 µM
[26] = second compound 3.16 µM, first compound 0.1 µM
[27] = second compound 3.16 µM, first compound 0.316 µM
[28] = second compound 3.16 µM, first compound 1 µM
[29] = second compound 3.16 µM, first compound 3.16 µM
[30] = second compound 3.16 µM, first compound 10 µM
[31] = second compound 10 µM, first compound 0.0316 µM
[32] = second compound 10 µM, first compound 0.1 µM
[33] = second compound 10 µM, first compound 0.316 µM
[34] = second compound 10 µM, first compound 1 µM
[35] = second compound 10 µM, first compound 3.16 µM
[36] = second compound 10 µM, first compound 10 µM
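Further: compound exposure lasted seven days before the viability readout.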
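Wherever viability, T/C is given: 100% = DMSO vehicle control wells.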

SMILES: CC(=O)O[C@H]1C(=O)[C@@]2(C)[C@H]([C@H](OC(=O)c3ccccc3)[C@]3(O)C[C@H](OC(=O)[C@H](O)[C@@H](NC(=O)c4ccccc4)c4ccccc4)C(C)=C1C3(C)C)[C@]1(OC(C)=O)CO[C@@H]1C[C@@H]2O + CN1CCN(c2cc(C(=O)Nc3cc4cc(-c5cnn(C)c5)ccc4cn3)ccn2)CC1
- IC50 (second compound 0.0316 µM): < 0.0316 µM
- IC50 (second compound 0.1 µM): < 0.0316 µM
- IC50 (second compound 0.316 µM): < 0.0316 µM
- IC50 (second compound 1 µM): < 0.0316 µM
- IC50 (second compound 3.16 µM): < 0.0316 µM
- IC50 (second compound 10 µM): < 0.0316 µM
- viability, T/C [1]: 7.03%
- viability, T/C [2]: 7.96%
- viability, T/C [3]: 7.37%
- viability, T/C [4]: 6.76%
- viability, T/C [5]: 6.08%
- viability, T/C [6]: 6.39%
- viability, T/C [7]: 5.82%
- viability, T/C [8]: 7.72%
- viability, T/C [9]: 7.07%
- viability, T/C [10]: 6.35%
- viability, T/C [11]: 6.66%
- viability, T/C [12]: 8.15%
- viability, T/C [13]: 5.25%
- viability, T/C [14]: 5.87%
- viability, T/C [15]: 5.15%
- viability, T/C [16]: 5.39%
- viability, T/C [17]: 7.05%
- viability, T/C [18]: 7.94%
- viability, T/C [19]: 0.07%
- viability, T/C [20]: 0.08%
- viability, T/C [21]: 0.18%
- viability, T/C [22]: 1.42%
- viability, T/C [23]: 0.21%
- viability, T/C [24]: 0.05%
- viability, T/C [25]: 0.21%
- viability, T/C [26]: 0.13%
- viability, T/C [27]: 2.68%
- viability, T/C [28]: 0.06%
- viability, T/C [29]: 0.46%
- viability, T/C [30]: 0.1%
- viability, T/C [31]: 0.05%
- viability, T/C [32]: 1.24%
- viability, T/C [33]: 0.14%
- viability, T/C [34]: 0.91%
- viability, T/C [35]: 0.48%
- viability, T/C [36]: 0.46%

SMILES: CC(=O)O[C@H]1C(=O)[C@@]2(C)[C@H]([C@H](OC(=O)c3ccccc3)[C@]3(O)C[C@H](OC(=O)[C@H](O)[C@@H](NC(=O)c4ccccc4)c4ccccc4)C(C)=C1C3(C)C)[C@]1(OC(C)=O)CO[C@@H]1C[C@@H]2O + CNC(=O)c1ccc(Nc2nc(OC3CCCC3)c3c(-c4ccc5nc(C)oc5c4)c[nH]c3n2)c(OC)c1
- IC50 (second compound 0.0316 µM): < 0.0316 µM
- IC50 (second compound 0.1 µM): < 0.0316 µM
- IC50 (second compound 0.316 µM): < 0.0316 µM
- IC50 (second compound 1 µM): < 0.0316 µM
- IC50 (second compound 3.16 µM): < 0.0316 µM
- IC50 (second compound 10 µM): < 0.0316 µM
- viability, T/C [1]: 9.1%
- viability, T/C [2]: 12.2%
- viability, T/C [3]: 13.4%
- viability, T/C [4]: 9.72%
- viability, T/C [5]: 15.4%
- viability, T/C [6]: 17.7%
- viability, T/C [7]: 24.6%
- viability, T/C [8]: 28.4%
- viability, T/C [9]: 28.9%
- viability, T/C [10]: 34.6%
- viability, T/C [11]: 25%
- viability, T/C [12]: 33.2%
- viability, T/C [13]: 27.6%
- viability, T/C [14]: 24.8%
- viability, T/C [15]: 33.2%
- viability, T/C [16]: 33.3%
- viability, T/C [17]: 32.2%
- viability, T/C [18]: 27.7%
- viability, T/C [19]: 30%
- viability, T/C [20]: 28.4%
- viability, T/C [21]: 33.6%
- viability, T/C [22]: 36%
- viability, T/C [23]: 29.2%
- viability, T/C [24]: 37.7%
- viability, T/C [25]: 30%
- viability, T/C [26]: 27.3%
- viability, T/C [27]: 28.9%
- viability, T/C [28]: 25.5%
- viability, T/C [29]: 26.4%
- viability, T/C [30]: 31.8%
- viability, T/C [31]: 29.1%
- viability, T/C [32]: 33.5%
- viability, T/C [33]: 31.6%
- viability, T/C [34]: 35.1%
- viability, T/C [35]: 30.7%
- viability, T/C [36]: 36.1%
